Consider 6 compounds from patent US4431662A, “1-(1,3-Benzodioxol-5-yl)-2-pyrrolidinone and its medicinal use” (priority 1981, dated 1984).

As usually defined, the ED50 is the dose that gives a 50% effect, or the effect in half of the subjects.

The nature of test [1]: Acetic Acid Writhing Test (AAWT) in the rat. It is filed as in vivo. The conditions noted are these: po, read-out: ED50 (Acetic Acid Writhing Assay in the Rat). An excerpt: Using the procedure described by Koster et al. in Fed. Proc. 18, 412 (1959) and Vinegar et al. in Handbook of Experimental Pharmcology, 50-2, ch.
(In writhing tests, fewer writhes than in controls are read as antinociception.)

Test [2] can be described thus: Modified Trypsin Hyperalgesic Assay (THA) in the rat. It is filed as in vivo. On the procedure:
The analgesic agents were administered 30 minutes after the administration of trypsin. In addition, a modification of Vinegar's published assay was carried out, comprising the administration of the analgesic agent preceding subplantar injection of trypsin (0.10 ml of 10% solution of trypsin in pyrogen-free water) by 15 minutes. In both THA's, pain scores were determined 60 minutes after trypsin injection. The result of the modification was to increase the sensitivity of the THA to the mild analgesic action of the agents.
There were usually 6 rats at each dose level and at least 3 dose levels were used.

The nature of the next test: Rat Hot Plate Assay. The note with it: for ED50: po, 1 h, read-out: Hot Plate Assay - Rat ED50; for Hot Plate Assay - Rat ED50, inactive: at 360 mg/kg. It is filed as in vivo. The source says:
The rat hot plate assay incorporated 2 modifications of the mouse hot plate assay originally described by Eddy et al., J. Pharmacol. Exp. Ther. 98, 121-137 (1950). The first modification was enlargement of the diameter of the cylindrical (water filled) copper plate to 25.0 cm to accommodate rats instead of mice. The second modification was the use of a temperature controller to regulate a 250 watt infrared heat lamp which was activated via a thermistor probe attached to the undersurface of the top of the copper plate. The surface temperature was thus maintained at 45±1.0° C. (N=28 measurements of the plate temperature under experimental conditions). The time in which a rat placed on the hotplate responded by lifting, shaking or licking either of its hind or forelimbs was recorded in tenths of a second. Only animals responding in pretest within 6-13 seconds were used in the studies. Drugs were suspended in 0.5% sodium carboxymethylcellulose and administered orally, by gavage, in a volume of 1.00 ml/100 g.b. wt. 60 min prior to testing. […] The reaction time of 18.3 seconds represented the sum of the mean pretest times of 40 untreated rats plus the time of 3 standard deviations of the mean. ED50 's and their standard errors were estimated from a graph of the dose-response curves using the method of Miller and Tainter (Proc. Soc. Exp. Biol. Med. 57, 261-262 (1944). Following this procedure the analgesic activity of the compound (I) was compared to that of standard analgesic drugs (Table III).
*Duration of Action in Rat Hot Plate assay represents the time in hrs to
reduce 1.5 times the hot plate ED50 to 40% inhibition.
(In general: Hot-plate and tail-flick tests time the reaction to a heat stimulus.)

A short description of test [3]: Carrageenin Pleurisy Assay (CPA), acute anti-inflammatory activity. It is filed as in vivo, rat. Here is the method:
Following the procedure described by Vinegar et al. in Proc. Soc. Exp. Biol. Med. 151, 556, (1976), the acute anti-inflammatory activity of the compound (I) was compared with that of known anti-inflammatory drugs in the rat. The average 3 hour exudate volume for each drug-treated group was determined and the % inhibition relative to solvent-fed control animals calculated, the ED50 being the dose required to reduce the 3 hour exudate volume by 50%.

The nature of test [4]: Yeast-Induced Hyperthermia Assay, antipyretic activity. It counts as in vivo. The note with it: rat; for ED50: po; for antipyretic activity (in words): yeast-induced hyperthermia assay. The source says:
The Yeast-Induced Hyperthermia Assay was used according to the procedure described by Khalili-Varasteh et al. in Arch. Int. Pharmacodyn.

Another test has as its system morphine receptor. Briefly: binding to the morphine receptor.
Test [5] is described as follows: analgesic activity, assay not given (including inhibition by naloxone). It counts as in vivo.
Setting [6] is: po, 1 h, rat, p.o., 6.0 kg Force, agent given 15 minutes before trypsin, pain scores 60 minutes after trypsin, read-out: ED50, 6.0 kg Force (Modified Trypsin Hyperalgesic Assay).
Setting [7] is: rat, p.o., 60 min prior to testing, plate 45±1.0° C.

A value given as a limit tells only on which side of the number the result lay.

In the case of `COc1ccc2c3c1O[C@H]1[C@@H](O)C=C[C@H]4[C@@H](C2)N(C)CC[C@@]341` [Codeine Phosphate], the ED50 in test [1] (Rattus norvegicus) came out at 30 ± 2.7 mg/kg; in test [2] (Rattus norvegicus, po, 1 h, read-out: ED50, 6.0 kg Force (Modified Trypsin Hyperalgesic Assay)), 10 ± 1.7 mg/kg; in test [2] (Rattus norvegicus, po, 1 h, read-out: ED50, 7.5 kg Force (Modified Trypsin Hyperalgesic Assay)) it was 8.8 ± 2.77 mg/kg.

On to `O=C1CCCN1c1ccc2c(c1)OCO2` [Compound I, 1-(1,3-benzodioxol-5-yl)-2-pyrrolidinone], for which the median effective dose (ED50) in test [1] (rat, p.o.) amounted to 36 ± 7.1 mg/kg; in test [2] (setting [6]), 24 ± 5.3 mg/kg; in test [2] (po, 1 h, rat, p.o., 7.5 kg Force, agent given 15 minutes before trypsin, pain scores 60 minutes after trypsin, read-out: ED50, 7.5 kg Force (Modified Trypsin Hyperalgesic Assay)), 23 ± 3.5 mg/kg; in “Rat Hot Plate Assay” (setting [7]) it was 86 ± 16.5 mg/kg; in test [3] (po, 3 h, rat, p.o., relative to solvent-fed control animals, read-out: ED50, dose required to reduce the 3 hour exudate volume by 50% (CPA)) it was 48 ± 10.5 mg/kg; in test [4] it was 67 ± 4.2 mg/kg. In addition, the “analgesic activity compared with known analgesics in the trypsin assay (in words)” value in test [2] (trypsin assay, versus acetaminophen, aspirin, zomepirac, codeine, morphine) is “superior to acetaminophen and the prostaglandin synthetase inhibitors such as aspirin and zomepirac as shown in the trypsin assay but less active than the opiates such as codeine or morphine”. The “Hot plate Duration of Action (time to reduce 1.5 times the hot plate ED50 to 40% inhibition)” value in “Rat Hot Plate Assay” (rat, p.o., dose 120 mg/kg) stood at 5.0 h. In addition, the “duration of analgesic action (in words)” value in the test “Rat Hot Plate Assay” (versus codeine or morphine, assay not given) is reported as “significantly greater for compound (I) than for codeine or morphine”. For the same compound, the “acute anti-inflammatory activity (in words)” value in test [3] (rat, carrageenan pleurisy assay) was “potent, long-lasting acute anti-inflammatory activity”. Also, the “acute anti-inflammatory action compared with acetaminophen (in words)” value in test [3] (versus acetaminophen at comparable dose levels) is “more potent and to have a longer-lasting anti-inflammatory effect at comparable dose levels”. Further, the “antipyretic activity (in words)” value in test [4] is listed as “antipyretic activity”. In the test on morphine receptor, the “binding to the morphine receptor (in words)” value was “does not bind to the morphine receptor”. Also, the “analgesic activity (in words)” value in test [5] (in vivo) is reported as “mild to moderately strong analgesic activity”. Moreover, the “inhibition of analgesic activity by naloxone (in words)” value in test [5] (naloxone) is recorded as “analgesic activity is not inhibited by naloxone”.

For the compound `CN1CC[C@]23c4c5ccc(O)c4O[C@H]2[C@@H](O)C=C[C@H]3[C@H]1C5` [Morphine], the ED50 in “Rat Hot Plate Assay” (Rattus norvegicus) amounted to 17 ± 3.6 mg/kg. Besides, in “Rat Hot Plate Assay” (rat, p.o., dose 30 mg/kg), the “Hot plate Duration of Action (time to reduce 1.5 times the hot plate ED50 to 40% inhibition)” value turned out to be 2.5 h.

For the compound `COc1ccc2c3c1O[C@H]1[C@@H](O)C=C[C@H]4[C@@H](C2)N(C)CC[C@@]341` [Codeine], the ED50 in “Rat Hot Plate Assay” (setting [7]) came to 57 ± 35.3 mg/kg. Besides, in the test “Rat Hot Plate Assay” (rat, p.o., dose 90 mg/kg), the “Hot plate Duration of Action (time to reduce 1.5 times the hot plate ED50 to 40% inhibition)” value came out at 3.3 h.

`CC(=O)Nc1ccc(O)cc1` [Acetaminophen]: the values for the ED50 in test [2] (setting [6]) and in test [4] were 95 ± 17.2 mg/kg and 72 ± 8.6 mg/kg, respectively. In test [2] (po, rat, p.o., 7.5 kg Force, @ 200 mg/kg, read-out: ED50, 7.5 kg Force (Modified Trypsin Hyperalgesic Assay), inactive), the ED50 at 200 mg/kg was more than 200 mg/kg. For the same compound, the “Hot Plate Assay - Rat ED50, inactive” value in “Rat Hot Plate Assay” (rat, p.o.) was “Inactive”. Further, the “antipyretic activity (in words)” value in test [4] is reported as “combats fever in the rat”.

As for `CC(=O)Oc1ccccc1C(=O)O` [Aspirin], the ED50 in test [1] (Rattus norvegicus) is 21 ± 3.4 mg/kg; in test [2] (Rattus norvegicus, po, read-out: ED50, 6.0 kg Force (Modified Trypsin Hyperalgesic Assay), inactive), more than 180 mg/kg; in test [4], 50 ± 8.1 mg/kg. Besides, the “Hot Plate Assay - Rat ED50, inactive” value in “Rat Hot Plate Assay” (rat, p.o.) was “Inactive”. Besides, in test [4], the “antipyretic activity (in words)” value is “combats fever in the rat”.
